According to patent publication US5543276A, “Color photographic element containing new epoxy scavengers for residual magenta coupler” (Eastman Kodak Company, priority 1994, dated 1996):

Columns and labels:
[1] = Residual magenta coupler M-20 in unexposed strips, raw stock and RA-4 processed; settings: coated M-20 32.8 mg/ft^2; for M-20 remaining, Processed after 2wk / M-20 remaining, Processed after 4wk: unexposed strips, standard RA-4 developer; for M-20 remaining, Processed after 2wk / M-20 remaining, Raw Stock after 2wk RT: 2 weeks room temperature; for M-20 remaining, Processed after 4wk / M-20 remaining, Raw Stock after 4wk: 4 weeks room temperature; for M-20 remaining, Raw Stock after 2wk RT / M-20 remaining, Raw Stock after 4wk: unprocessed strips
Procedure: A dispersion of the magenta coupler M-20 and scavenger coupler S-1 were prepared in the following manner:
The oil phase was prepared by combining 1.875 grams of S-1 with 0.852 grams of myrisitc acid and 30 grams of ethyl acetate. The solution was stirred on a hot plate for about 5 minutes.
The aqueous phase was prepared by combining 3.0 grams of a 10% solution of Alkanol XC with 17.6 grams of a 11.36% solution of Type IV gelatin in water. 26.7 grams of distilled water was then added and the solution was stirred on a hot plate for about five minutes.
The aqueous phase was combined with the oil phase and the mixture was stirred. The mixture was then passed three times through a colloid mill to obtain the dispersion. The ethyl acetate was removed by evaporation under reduced pressure. [drawing 42] The dispersions were then coated in the format shown below (the numbers indicate the amount of each component in mg/ft^2).
The coating format also contains a UV protection layer and an overcoat (not shown). Unexposed strips were process in standard RA-4 developer and then stored at room temperature. The strips were analyzed for residual coupler as a function of time. A set of unprocessed strips were stored at room temperature for the same length of time to check for reaction between coupler and S-1 in raw stock. A second set of unexposed strips were processed in standard RA-4 developer and then subjected to two weeks of 50 klux high intensity sunshine radiation after storage at room temperature for two weeks. The change in Status A blue density was measured. […]

[2] = Change in Status A blue density (photochemical yellowing) of processed unexposed strips under high intensity sunshine radiation; settings: RA-4 processed, 2 weeks room temperature, then two weeks 50 klux high intensity sunshine
Procedure: The coating format also contains a UV protection layer and an overcoat (not shown). Unexposed strips were process in standard RA-4 developer and then stored at room temperature. The strips were analyzed for residual coupler as a function of time. A set of unprocessed strips were stored at room temperature for the same length of time to check for reaction between coupler and S-1 in raw stock. A second set of unexposed strips were processed in standard RA-4 developer and then subjected to two weeks of 50 klux high intensity sunshine radiation after storage at room temperature for two weeks. The change in Status A blue density was measured.
This coating also contained a UV protection layer and overcoat (not shown). Strips based on the coating were subjected to the same set of tests as in Example 4.

[3] = epoxy compound coated in separate layers adjacent to imaging layer; copending application Ser. No. 08/000,431; cited from earlier work

M-20 remaining, Processed after 2wk [1] | M-20 remaining, Processed after 4wk [1] | M-20 remaining, Raw Stock after 2wk RT [1] | M-20 remaining, Raw Stock after 4wk [1] | Structure (SMILES) | Delta Blue Density [2] | loss of coupler prior to processing [3]
29.9 mg/ft.2 | 29.3 mg/ft.2 | 30.2 mg/ft.2 | 28.8 mg/ft.2 | O=C(OCCCCCCCCCC1CO1)c1ccccc1C(=O)OCCCCCCCCCC1CO1 (centres unmarked) [S-1] | 0.13 | negligible loss of coupler prior to processing
14.9 mg/ft.2 | 13.9 mg/ft.2 | 28.6 mg/ft.2 | 28.4 mg/ft.2 | O=C(CCCCCCCCC1CO1)Oc1ccc(NS(=O)(=O)c2ccc(F)cc2F)cc1 (centres unmarked) [SI-20] | 0.05 | –
